# Experimental data as given in ChEMBL document CHEMBL3751779, “Amides of non-steroidal anti-inflammatory drugs with thiomorpholine can yield hypolipidemic agents with improved anti-inflammatory activity” (Bioorg Med Chem Lett, 2016).
# How the values were obtained:
# Type in all cases: functional
# Rattus norvegicus [1] = assay: Anti-inflammatory activity in rat assessed as reduction of carrageenan-induced paw edema at 150 umol/kg, ip after 3.5 hrs relative to control
# Rattus norvegicus [2] = assay: Antihyperlipidemic activity in rat assessed as reduction of tyloxapol-induced plasma triglyceride level at 150 umol/kg, ip after 24 hrs relative to control
# Rattus norvegicus [3] = assay: Antihyperlipidemic activity in rat assessed as reduction of tyloxapol-induced plasma total cholesterol level at 150 umol/kg, ip after 24 hrs relative to control
# Rattus norvegicus [4] = assay: Antihyperlipidemic activity in rat assessed as reduction of tyloxapol-induced plasma low density lipoprotein cholesterol level at 150 umol/kg, ip after 24 hrs relative to control
Compound,inhibition in vivo at 150 µmol/kg (Rattus norvegicus [1]),inhibition in vivo at 150 µmol/kg (Rattus norvegicus [2]),inhibition in vivo at 150 µmol/kg (Rattus norvegicus [3]),inhibition in vivo at 150 µmol/kg (Rattus norvegicus [4])
Cc1cccc(Nc2ccccc2C(=O)O)c1C [MEFENAMIC ACID],44%,–,–,–
Cc1cccc(Nc2ccccc2C(=O)N2CCSCC2)c1C,46%,81.5%,80.5%,71.3%
COc1ccc2cc([C@H](C)C(=O)O)ccc2c1 [NAPROXEN],11%,–,–,–
COc1ccc2cc(C(C)C(=O)N3CCSCC3)ccc2c1 (stereo unspecified),62%,61.3%,57.8%,81.4%
Cc1c(Cl)cccc1Nc1ccccc1C(=O)O [TOLFENAMIC ACID],24%,–,–,–
COc1ccc2c(c1)c(CC(=O)N1CCSCC1)c(C)n2C(=O)c1ccc(Cl)cc1,38%,79.5%,73%,83%
CC(C(=O)N1CCSCC1)c1cccc(C(=O)c2ccccc2)c1 (stereo unspecified),60%,43%,49%,64.9%
O=C(O)c1ccccc1Nc1cccc(C(F)(F)F)c1 [FLUFENAMIC ACID],19%,–,–,–
CC(C)Cc1ccc(C(C)C(=O)O)cc1 (stereo unspecified) [IBUPROFEN],36%,–,–,–
CC(C)Cc1ccc(C(C)C(=O)N2CCSCC2)cc1 (stereo unspecified),41%,64.2%,60.3%,57.6%
COc1ccc2c(c1)c(CC(=O)O)c(C)n2C(=O)c1ccc(Cl)cc1 [INDOMETHACIN],42%,–,–,–
O=C(c1ccccc1Nc1cccc(C(F)(F)F)c1)N1CCSCC1,44%,54.1%,52.8%,64.2%
O=C(O)Cc1ccccc1Nc1c(Cl)cccc1Cl [DICLOFENAC],37%,–,–,–
O=C(Cc1ccccc1Nc1c(Cl)cccc1Cl)N1CCSCC1,40%,46.4%,44.1%,70.8%
O=C(CCCCC1CCSS1)N1CCSCC1 (stereo unspecified),59%,–,–,–
O=C(Cc1c[nH]c2ccccc12)N1CCSCC1,29%,–,–,–
Cc1c(Cl)cccc1Nc1ccccc1C(=O)N1CCSCC1,45%,80%,65.9%,70.5%
